Measurements taken from patent US20080025966A1, “Methods And Compositions For The Treatment Of Gastrointestinal disorders” (priority 2004, published 2008).
No end group written: not given here.

Legend:
[1] = system: guanylin-induced intestinal fluid secretion; details: suckling mouse model; chymostatin given with guanylin; cited from earlier work
chymotrypsin [2] = molecular target: T1, chymotrypsin (Bos taurus, UniProt P00766); assay: Guanylin degradation assay (chymotrypsin digestion) read out in the T84 cGMP assay; type: biochemical, bovine; details: T84 cells, FIG. 1
T1 construct: purchased Sigma C6423
Experimental: Since guanylin is susceptible to digestion by chymotrypsin, chymotrypsin activity can be assayed based on guanylin cleavage. […] From this stock, six (6) 500 μl aliquots were prepared in 2 ml Eppendorf tubes and labeled “Control”, “T0”, “T15”, “T30”, “T60”, and “T180”, with “T_” representing timepoints, in minutes. 5 μl of a 10 mM chymostatin (Sigma, C7268) stock (5 mg of chymostatin resuspended in 824 μl of DMSO) was added to the “Control” samples and all samples were incubated for 5 minutes at 30° C. Chymostatin inhibits chymotrypsin activity and this sample served as a negative control. Next, 20 μl of a chymotrypsin (Sigma, C6423) enzyme solution (0.01 mg/ml bovine chymotrypsin enzyme in 1 mM HCl, 2 mM Calcium Chloride) were added to the samples and mixed by inversion. Samples are incubated at 30° C. […] Determination of sensitivity to digestion by chymotrypsin was determined by LCMS analysis and by in vitro activity in the T84 cGMP assays described below.
The ability of guanylin to activate the intestinal GC-C receptor was assessed in an assay employing the T84 human colon carcinoma cell line (American Type Culture Collection (Bethesda, Md.). For the assays cells were grown to confluency in 24-well culture plates with a 1:1 mixture of Ham's F12 medium and Dulbecco's modified Eagle's medium (DMEM), supplemented with 5% fetal calf serum and were used at between passages 54 and 60. […]

chymotrypsin [3] = details: cited from earlier work
human HT-29/B6 cells = details: cited from earlier work

CC(C)C[C@H](NC(=O)[C@@H](NC(=O)N[C@@H](Cc1ccccc1)C(=O)O)C1CCNC(=N)N1)C(=O)N[C@H](C=O)Cc1ccccc1 (stereo partly shown) [chymostatin]
guanylin-induced intestinal fluid secretion [1]: required in order to observe guanylin-induced intestinal fluid secretion
guanylin stimulated cGMP activity with chymotrypsin inhibitor present (chymotrypsin [2]; chymostatin added before chymotrypsin digestion of guanylin): retained
chymotrypsin-mediated inactivation of guanylin (chymotrypsin [3]): can be prevented

Cc1c(O)cccc1C(=O)N[C@@H](CSc1ccccc1)[C@H](O)CN1C[C@H]2CCCC[C@H]2C[C@H]1C(=O)NC(C)(C)C [nelfinavir, Nelfinavir]
effect on the epithelial barrier (human HT-29/B6 cells): impair the epithelial barrier

CC(C)c1nc(CN(C)C(=O)N[C@H](C(=O)N[C@@H](Cc2ccccc2)C[C@H](O)[C@H](Cc2ccccc2)NC(=O)OCc2cncs2)C(C)C)cs1 [ritonavir]
effect on the epithelial barrier (human HT-29/B6 cells): impair the epithelial barrier

CC(C)(C)NC(=O)[C@@H]1C[C@@H]2CCCC[C@@H]2CN1C[C@@H](O)[C@H](Cc1ccccc1)NC(=O)[C@H](CC(N)=O)NC(=O)c1ccc2ccccc2n1 [saquinavir, Saquinavir]
effect on the epithelial barrier (human HT-29/B6 cells): impair the epithelial barrier

guanylin: intestinal peptide of 15 amino acids, agonist of the guanylate cyclase (GC-C) receptor; Sigma G-116 (PGTCEICAYAACTGC; ends and bridges not checked; cysteine pairing not given here; UniProt Q02747 101-115, looked up)
guanylin stimulated cGMP activity (chymotrypsin [2]; guanylin digested with chymotrypsin at 30° C., timepoints 0-180 min, no chymostatin): decreases over time
